These results are taken from patent publication US20230210999A1, “TARGETED PROTEASE DEGRADATION (TED) PLATFORM” (EUBULUS BIOTHERAPEUTICS INC., priority 2020, published 2023).

One assay concerns HT-29 cells. Description: Cell proliferation experiment, HT-29. Conditions: Homo sapiens; HT-29 cells, 72 h; read-out: Inhibitory activity IC50 of tested compounds on HT-29 cells. Type of assay: cell-based. As to the method: (§1) Reagents: RPMI-1640 medium, McCoy's 5A medium, IMDM medium, MEM medium, L-15 medium, fetal bovine serum. Penicillin-Streptomycin double antibody, trypsin, etc., 2-mercaptoethanol, NEAA, pyruvate, etc.
(§2) The cells were cultured in conventional ways, and the cells should be passed at least 2 generations before plating. Cells at the logarithmic growth phase were collected, prepared into single cell suspensions and counted. The concentration of cells was adjusted to the desired concentration, and cells were inoculated into a 96-well cell culture plate at 100 μl per well. 100 μL of complete medium of the test compound were added to each well, set up 2 duplicate wells for each concentration, and diluted with a 5-fold gradient, and continued to culture for 72 h. All cells were subjected to IC50 test for corresponding samples. The experimental results are shown in Test Example 4.
(§3) The fluorescence intensity of each well was detected using the Alarm blue method, and IC50 was calculated.
(§4) IC50 was calculated according to the following formula:
(§5) Y=Max+(Min−Max)/[1+(X/IC50)×Slope]
(§6) wherein Min, Max and Slope represent the minimum, maximum and slope respectively.

A further assay relates to U-87MG cells. Description: Cell proliferation experiment, U-87MG. The conditions noted are these: Homo sapiens; U-87MG cells, 72 h; read-out: Inhibitory activity IC50 of tested compounds on U-87MG cells. Type of assay: cell-based. The procedure: as §1, §2, §3, §4, §5, §6
A further assay has as its system MV4;11 cells. In words: Cell proliferation experiment (Alamar blue, 72 h), MV4;11. Type of assay: cell-based, human. Conditions: Homo sapiens, MV4-11, 72 h, MV4;11 cells, 72 h; read-out: Inhibitory activity IC50 of tested compounds on MV4;11 cells. The method, boiled down:
(§7)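 Cells were passaged at least twice, harvested in log phase and plated in 96 wells. Compound in complete medium was added at 5-fold gradient concentrations, duplicates per concentration. After 72 h culture, Alamar blue fluorescence was measured and IC50 fitted.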
(In general: Resazurin is reduced to fluorescent resorufin, in cell work by metabolically active cells.)

A further assay relates to Daudi cells. In words: Cell proliferation experiment, Daudi. Type of assay: cell-based, human. The conditions noted are these: Homo sapiens, Daudi, 72 h, Daudi cells, 72 h; read-out: Inhibitory activity IC50 of tested compounds on Daudi cells. The method, boiled down: as §7
A further assay has as its system NCIH82 cells. Description: Cell proliferation experiment, NCI-H82. Type of assay: cell-based, human. The conditions noted are these: Homo sapiens, NCI-H82, 72 h, NCIH82 cells, 72 h; read-out: Inhibitory activity IC50 of tested compounds on NCIH82 cells. The procedure, abridged: as §7
Another assay relates to HUVEC cells. Description: Cell proliferation experiment, HUVEC. Type of assay: cell-based. Conditions: Homo sapiens, 72 h, read-out: Inhibitory activity IC50 of tested compounds on HUVEC cells. The procedure: as §1, §2, §3, §4, §5, §6

Structures are written as SMILES. Some results are limits rather than exact numbers.

For orientation: IC50 means the concentration at which inhibition is half-maximal.

In the case of `CC[C@@H]1C(=O)N(C)c2cnc(Nc3ccc(C(=O)NC4CCN(CCOCCCNCCC#Cc5cccc6c5CN(C5CCC(=O)NC5=O)C6=O)CC4)cc3OC)nc2N1C1CCCC1` (stereo partly drawn) [Compound 908], the IC50 is 300 to 1000 nM in the assay with HT-29 cells; 100 to 500 nM in the assay with U-87MG cells; at most 100 nM in the assay on MV4;11 cells; at most 100 nM in the assay on Daudi cells; at most 1000 nM with NCIH82 cells.
`CC[C@@H]1C(=O)N(C)c2cnc(Nc3ccc(C(=O)NC4CCN(CCCCNCCC#Cc5cccc6c5CN(C5CCC(=O)NC5=O)C6=O)CC4)cc3OC)nc2N1C1CCCC1` (stereo partly drawn) [Compound 909]: the 50% inhibitory concentration (IC50) in the assay with HT-29 cells was at most 300 nM; in the assay on U-87MG cells it was at most 100 nM; in the assay with MV4;11 cells it was at most 100 nM; in the assay with Daudi cells, at most 100 nM; with NCIH82 cells, at most 1000 nM.
On to `CC[C@@H]1C(=O)N(C)c2cnc(Nc3ccc(C(=O)NC4CCN(CCCCN(C)CCC#Cc5cccc6c5CN(C5CCC(=O)NC5=O)C6=O)CC4)cc3OC)nc2N1C1CCCC1` (stereo partly drawn) [Compound 910], for which the half-maximal inhibitory concentration (IC50) in the assay on HT-29 cells was at most 300 nM; in the assay on U-87MG cells it was 100 to 500 nM; in the assay on MV4;11 cells, at most 100 nM; in the assay on Daudi cells, at most 100 nM; in the assay on NCIH82 cells, at most 1000 nM.
`CC[C@@H]1C(=O)N(C)c2cnc(Nc3ccc(C(=O)NC4CCN(CCCN(C)CCCOCCCC#Cc5cccc6c5CN(C5CCC(=O)NC5=O)C6=O)CC4)cc3OC)nc2N1C1CCCC1` (stereo partly drawn) [Compound 911]: the IC50 was 300 to 1000 nM with HT-29 cells; at most 100 nM in the assay with U-87MG cells; at most 100 nM in the assay on MV4;11 cells; at most 100 nM in the assay on Daudi cells; at most 1000 nM in the assay with NCIH82 cells.
For `CC[C@@H]1C(=O)N(C)c2cnc(Nc3ccc(C(=O)NCCCOCCCNCCC#Cc4cccc5c4CN(C4CCC(=O)NC4=O)C5=O)cc3OC)nc2N1C1CCCC1` (stereo partly drawn) [Compound 912], the half-inhibitory concentration (IC50) in the assay on HT-29 cells is 300 to 1000 nM; in the assay on U-87MG cells, at most 100 nM; with MV4;11 cells, at most 100 nM; in the assay on Daudi cells, at most 100 nM; in the assay with NCIH82 cells, at most 1000 nM.
`CC[C@@H]1C(=O)N(C)c2cnc(Nc3ccc(C(=O)NCCCOCCCN(C)CCC#Cc4cccc5c4CN(C4CCC(=O)NC4=O)C5=O)cc3OC)nc2N1C1CCCC1` (stereo partly drawn) [Compound 913]: the half-inhibitory concentration (IC50) in the assay on HT-29 cells was 300 to 1000 nM; in the assay on U-87MG cells, at most 100 nM; in the assay on MV4;11 cells, at most 100 nM; in the assay on Daudi cells, at most 100 nM; with NCIH82 cells, at most 1000 nM.
Regarding `CC[C@@H]1C(=O)N(C)c2cnc(Nc3ccc(C(=O)NC4CCN(CCCOCCCN(C)CCC#Cc5cccc6c5CN(C5CCC(=O)NC5=O)C6=O)CC4)cc3OC)nc2N1C1CCCC1` (stereo partly drawn) [Compound 914], the 50% inhibitory concentration (IC50) with HT-29 cells was at most 300 nM; with U-87MG cells it was 100 to 500 nM; with MV4;11 cells, at most 100 nM; with Daudi cells it was at most 100 nM; in the assay with NCIH82 cells, at most 1000 nM.
Turning to `CC[C@@H]1C(=O)N(C)c2cnc(Nc3ccc(C(=O)NC4CCN(CCOCCCNCCCC#Cc5cccc6c5CN(C5CCC(=O)NC5=O)C6=O)CC4)cc3OC)nc2N1C1CCCC1` (stereo partly drawn) [Compound 915], the 50% inhibitory concentration (IC50) in the assay with HT-29 cells is 300 to 1000 nM; in the assay with U-87MG cells, 100 to 500 nM; with MV4;11 cells, at most 100 nM; in the assay with Daudi cells it was at most 100 nM; in the assay on NCIH82 cells, at most 1000 nM.
Regarding `CC[C@@H]1C(=O)N(C)c2cnc(Nc3ccc(C(=O)NC4CCN(CCOCCCN(C)CCC#Cc5cccc6c5CN(C5CCC(=O)NC5=O)C6=O)CC4)cc3OC)nc2N1C1CCCC1` (stereo partly drawn) [Compound 916], the IC50 in the assay with HT-29 cells is at most 300 nM; in the assay with U-87MG cells, 100 to 500 nM; with MV4;11 cells, at most 100 nM; with Daudi cells, at most 100 nM; in the assay with NCIH82 cells it was at most 1000 nM.
Take `CC[C@@H]1C(=O)N(C)c2cnc(Nc3ccc(C(=O)NC4CCN(CCCOCCCNCCCC#Cc5cccc6c5CN(C5CCC(=O)NC5=O)C6=O)CC4)cc3OC)nc2N1C1CCCC1` (stereo partly drawn) [Compound 917]: the IC50 is 300 to 1000 nM in the assay with HT-29 cells; 100 to 500 nM in the assay on U-87MG cells; at most 100 nM in the assay with MV4;11 cells; at most 100 nM in the assay on Daudi cells; at most 1000 nM in the assay on NCIH82 cells.
As for `CC[C@@H]1C(=O)N(C)c2cnc(Nc3ccc(C(=O)NC4CCN(CCCOCCNCCCC#Cc5cccc6c5CN(C5CCC(=O)NC5=O)C6=O)CC4)cc3OC)nc2N1C1CCCC1` (stereo partly drawn) [Compound 918], the IC50 in the assay with HT-29 cells was 300 to 1000 nM; in the assay on U-87MG cells, 100 to 500 nM; in the assay with MV4;11 cells it was at most 100 nM; in the assay with Daudi cells it was at most 100 nM; in the assay on NCIH82 cells, at most 1000 nM.
On to `CC[C@@H]1C(=O)N(C)c2cnc(Nc3ccc(C(=O)NC4CCN(CCCOCCCN(C)CCCC#Cc5cccc6c5CN(C5CCC(=O)NC5=O)C6=O)CC4)cc3OC)nc2N1C1CCCC1` (stereo partly drawn) [Compound 919], for which the half-maximal inhibitory concentration (IC50) with HT-29 cells was 300 to 1000 nM; with U-87MG cells it was 100 to 500 nM; with MV4;11 cells it was at most 100 nM; in the assay on Daudi cells, at most 100 nM; in the assay with HUVEC cells it was at most 1000 nM; in the assay with NCIH82 cells it was at most 1000 nM.
As to `CC[C@@H]1C(=O)N(C)c2cnc(Nc3ccc(C(=O)NCCCOCCOCCN(C)CCC#Cc4cccc5c4CN(C4CCC(=O)NC4=O)C5=O)cc3OC)nc2N1C1CCCC1` (stereo partly drawn) [Compound 920], the half-maximal inhibitory concentration (IC50) with HT-29 cells was 300 to 1000 nM; with U-87MG cells it was at most 100 nM; in the assay on MV4;11 cells, at most 100 nM; in the assay on Daudi cells, at most 100 nM; with HUVEC cells it was at most 1000 nM; with NCIH82 cells, at most 1000 nM.
On to `CC[C@@H]1C(=O)N(C)c2cnc(Nc3ccc(C(=O)NCCCNCCCOCCC#Cc4cccc5c4CN(C4CCC(=O)NC4=O)C5=O)cc3OC)nc2N1C1CCCC1` (stereo partly drawn) [Compound 921], for which the half-inhibitory concentration (IC50) is above 1000 nM with HT-29 cells; 100 to 500 nM in the assay with U-87MG cells; at most 100 nM with MV4;11 cells; 100 to 1000 nM with Daudi cells; at most 1000 nM in the assay on HUVEC cells; above 1000 nM with NCIH82 cells.
Turning to `CC[C@@H]1C(=O)N(C)c2cnc(Nc3ccc(C(=O)NC4CCN(CCCCNCCCC#Cc5cccc6c5CN(C5CCC(=O)NC5=O)C6=O)CC4)cc3OC)nc2N1C1CCCC1` (stereo partly drawn) [Compound 922], the IC50 with HT-29 cells is 300 to 1000 nM; with U-87MG cells, 100 to 500 nM; in the assay on MV4;11 cells it was at most 100 nM; in the assay on Daudi cells, 100 to 1000 nM; in the assay with HUVEC cells it was at most 1000 nM; in the assay on NCIH82 cells, at most 1000 nM.
On to `CC[C@@H]1C(=O)N(C)c2cnc(Nc3ccc(C(=O)NC4CCN(CCCCN(C)CCCC#Cc5cccc6c5CN(C5CCC(=O)NC5=O)C6=O)CC4)cc3OC)nc2N1C1CCCC1` (stereo partly drawn) [Compound 923], for which the IC50 was at most 300 nM in the assay on HT-29 cells; 100 to 500 nM in the assay with U-87MG cells; at most 100 nM in the assay on MV4;11 cells; at most 100 nM in the assay on Daudi cells; at most 1000 nM with HUVEC cells; at most 1000 nM in the assay with NCIH82 cells.
Consider `CC[C@@H]1C(=O)N(C)c2cnc(Nc3ccc(C(=O)NC4CCN(CCCOCCN(C)CCCC#Cc5cccc6c5CN(C5CCC(=O)NC5=O)C6=O)CC4)cc3OC)nc2N1C1CCCC1` (stereo partly drawn) [Compound 924], for which the IC50 was at most 300 nM in the assay with HT-29 cells; 100 to 500 nM in the assay on U-87MG cells; at most 100 nM in the assay with MV4;11 cells; at most 100 nM in the assay on Daudi cells; at most 1000 nM in the assay on HUVEC cells; at most 1000 nM with NCIH82 cells.
Regarding `CC[C@@H]1C(=O)N(C)c2cnc(Nc3ccc(C(=O)NC4CCC(N5CCN(CCCC(=O)NC#Cc6cccc7c6CN(C6CCC(=O)NC6=O)C7=O)CC5)CC4)cc3OC)nc2N1C1CCCC1` (stereo partly drawn) [Compound 926], the concentration for half-maximal inhibition (IC50) in the assay with HT-29 cells is 300 to 1000 nM; in the assay on U-87MG cells, 100 to 500 nM; in the assay with MV4;11 cells it was at most 100 nM; with Daudi cells, at most 100 nM; with HUVEC cells it was at most 1000 nM; in the assay on NCIH82 cells, at most 1000 nM.
In the case of `CC[C@@H]1C(=O)N(C)c2cnc(Nc3ccc(C(=O)NC4CN(CCCOCCCNCCC#Cc5cccc6c5CN(C5CCC(=O)NC5=O)C6=O)C4)cc3OC)nc2N1C1CCCC1` (stereo partly drawn) [Compound 931], the half-maximal inhibitory concentration (IC50) with HT-29 cells was above 1000 nM; with U-87MG cells it was 500 to 1000 nM; with MV4;11 cells, at most 100 nM; in the assay on Daudi cells, 100 to 1000 nM; in the assay on NCIH82 cells, at most 1000 nM.
